Data on one substance can be found in patent US7744927B2, “Methods of promoting hematopoietic and mesenchymal cell proliferation and differentiation” (University of Southern California, priority 1997, dated 2010).

For assay [1], the system named is rat peritoneal macrophages. Kind of assay: Respiratory burst (hydrogen peroxide generation), rat peritoneal macrophages. In kind it is cell-based. To be noted: alone and in response to PMA 10 ng/ml; 4 hours exposure. As for the experimental part:
(§1) The respiratory burst of leukocytes (macrophages and polymorphonuclear neutrophils) is one component of the mediator system used to kill bacteria. As with phagocytosis, the level of this respiratory burst activity in resident macrophages is low. […] Studies were conducted to assess the effect of in vitro exposure of murine or rat peritoneal macrophages and human peripheral blood mononuclear cells (PBMC) to various concentrations of AII on the capacity to generate hydrogen peroxide via the respiratory burst system. For the human studies, five different donors were examined.
The murine or rat peritoneal cells were harvested by lavage with 5-15 ml of cold PBS with 0.5% bovine serum albumin. The human PBMC were harvested by venipuncture from normal human volunteers and isolated from peripheral blood by Ficoll Hypaque density centrifugation. After isolation, the cells were resuspended at 1×10^6 cells/ml and placed at 100 μl per well into 96 well plates. The cells were incubated with various concentrations of AII or AII analogues for 4 hours at 37° C. The cells were then preloaded with a fluorescent probe for hydrogen peroxide, 2,7 dichlorofluorescein acetate, which is nonfluorescent in the absence of hydrogen peroxide. […] One hour after stimulation the level of fluorescence produced was measured on a Cytofluor 2350 multiwell fluorometer.

Assay [2] concerns cells that express alkaline phosphatase (rat bone marrow MSC). Put plainly: Alkaline phosphatase expression by MSC in osteogenic medium. In kind it is cell-based, Sprague Dawley rats. To be noted: osteogenic medium 4 days, absorbance at 405 nm. The text has this:
Mesenchymal stem cells isolated from bone marrow and grown under appropriate conditions can express characteristics of multiple cell types, including cells involved in the generation of bone, cartilage, muscle and tendons. Osteogenic cells (cells that can form bone tissue) express the enzyme alkaline phosphatase when cultured in medium that drives them toward their osteogenic differentiation.
Bone marrow from female Sprague Dawley rats were harvested by flushing the femur with medium. The cells were placed in culture dishes 9 […], allowed to adhere overnight, and then placed in DMEM-LG medium containing antibiotics and 10% fetal calf serum together with varying concentrations of AII. At various times after culture initiation, the cells were washed with Tyrode's buffer and placed in osteogenic medium (DMEM-LG containing 10% fetal calf serum, 100 nM dexamethasone and 0.05 mM ascorbic acid) for 4 days prior to assessment of the level of alkaline phosphatase activity per well. Briefly, the wells were washed with Tyrode's buffer and 1 ml alkaline phosphatase substrate solution (50 mM glycine, pH 10.5, containing 1 mM magnesium chloride and 2.5 mM p-nitrophenyl phosphate) to each well. […] The absorbance of the resultant mixture at 405 nm was then determined via spectroscopy. The level of alkaline phosphatase activity is expressed as the level of absorbance per culture dish.

In the next assay the test system is murine HPC. Kind of assay: Murine HPC colony formation in the absence of colony stimulating factors. In kind it is cell-based, C57B1/6 mice. To be noted: 14 days. The procedure: HPC were harvested from C57B1/6 mice by immunomagnetic affinity chromatography and placed in semi-solid cultures with optimal growth medium in the absence of colony stimulating factors. At various times after initiation of culture, the formation of colonies and the size of the colonies (number of cells/colony) was assessed microscopically.
Female C57B1/6 mice were purchased from Simonson and used as a source of bone marrow cells in this study. The bone marrow was harvested from the femur and tibia of mice by flushing with phosphate buffered saline (PBS), pH 7.4, containing 2% fetal bovine serum (FBS) with a 21-gauge needle. The eluant from the flushing was centrifuged and the pellet was resuspended at 4×10^7 nucleated cells/ml in PBS containing PBS containing 2% FBS and 5% normal rat serum.
The reagents for immunomagnetic labeling were purchased from Stem Cell Technologies, Inc. (Vancouver, BC). Biotin-labeled monoclonal antibodies to the following murine lineage-specific cell surface antigens were included in a cocktail for HPC enrichment and used according to the manufacturer's instructions: CD5 (Ly-1), CD45-R (B220), CD11b (Mac-1), Myeloid Differentiation Antigen (Gr-1) and Erythroid Cells (TER 119) Ten μl of antibody cocktail was added to the bone marrow, mixed and allowed to incubate at 4° C. for 15 minutes. […]

In the next assay the test system is AT2 receptor. To be noted: cited from earlier work.
Assay [3] relates to chick chorioallantoic membrane. To be noted: in vivo; cited from earlier work.
The test system of another assay is wound tissue. To be noted: application to wound tissue; cited from earlier work.
Assay [4] deals with human peripheral blood mononuclear cells (PBMC). Kind of assay: Respiratory burst (hydrogen peroxide generation), human PBMC. In kind it is cell-based. To be noted: alone and in response to PMA 10 ng/ml; 4 hours exposure. As for the experimental part:
as §1
The murine or rat peritoneal cells were harvested by lavage with 5-15 ml of cold PBS with 0.5% bovine serum albumin. The human PBMC were harvested by venipuncture from normal human volunteers and isolated from peripheral blood by Ficoll Hypaque density centrifugation. After isolation, the cells were resuspended at 1×10^6 cells/ml and placed at 100 μl per well into 96 well plates. The cells were incubated with various concentrations of AII or AII analogues for 4 hours at 37° C. The cells were then preloaded with a fluorescent probe for hydrogen peroxide, 2,7 dichlorofluorescein acetate, which is nonfluorescent in the absence of hydrogen peroxide. Fifteen minutes later, 10 ng/ml of phorbol myristate acetate (+PMA) or PBS (−PMA) was added to stimulate the production of hydrogen peroxide. One hour after stimulation the level of fluorescence produced was measured on a Cytofluor 2350 multiwell fluorometer.

Consider “Asp-Arg-Val-Tyr-Ile-His-Pro-Phe [AII, known pressor agent, commercially available]”, for which the “ability to generate hydrogen peroxide (respiratory burst)” value in assay [1] and in assay [4] was “increased the ability of leukocytes to generate hydrogen peroxide” in each case. Besides, the “proliferation of cells that express alkaline phosphatase” value in assay [2] is recorded as “can accelerate the proliferation of cells that express alkaline phosphatase”. For the same substance, the “HPC colony size / HPC proliferation” value with murine HPC was “HPC colony size increases proportionately”. In the assay with AT2 receptor, the “affinity for AT2 than AT1” value is reported as 100 times. Further, in assay [3], the angiogenic activity result was “angiogenic”. The “rate of wound healing” value in the assay on wound tissue is “significantly increases the rate of wound healing”.
